“And” between values parts separate entries of the source, which are not always exact repeats. Equal values may be shown once. Inconclusive results and toxic doses are left out. How the source made its calls: active means survival T/C of 150% or more; inactive means T/C below 125% in these data.
System: C57BL/6 mice, intracerebral ependymoblastoma, median survival T/C
Assay: NCI In Vivo Anticancer Drug Screen. Data for tumor model Ependymoblastoma (intracerebral) in C57BL/6 mice
Conditions: endpoint: median survival time, higher = longer survival
Experimental: The antitumor activity of compounds was measured in mice bearing transplantable tumors. Survival or tumor size were measured and the results are expressed as the measurement made in the treated group (T) divided by the measurement made in the vehicle treated control group (C). The tumor model used in this assay is Ependymoblastoma (intracerebral) in C57BL/6 mice

[1] = dose: 2.0 mg/kg/injection, schedule: Q01DX005 (ip), vehicle: saline with Tween-80
[2] = dose: 4.0 mg/kg/injection, schedule: Q01DX005 (ip), vehicle: saline with Tween-80
[3] = dose: 64.0 mg/kg/injection, schedule: Q01DX005 (ip), vehicle: saline with Tween-80
[4] = dose: 128.0 mg/kg/injection, schedule: Q01DX005 (ip), vehicle: saline with Tween-80
[5] = dose: 256.0 mg/kg/injection, schedule: Q01DX005 (ip), vehicle: saline with Tween-80
[6] = dose: 512.0 mg/kg/injection, schedule: Q01DX005 (ip), vehicle: saline with Tween-80
[7] = dose: 8.0 mg/kg/injection, schedule: Q01DX005 (ip), vehicle: saline with Tween-80

Measured: T/C

CCOC(=O)CC(SP(=S)(OC)OC)C(=O)OCC (configuration not stated)
inactive: dose: 24.0 mg/kg/injection, schedule: Q01DX005 (ip), vehicle: saline with Tween-80 101 % of control and 104 % of control | dose: 45.0 mg/kg/injection, schedule: Q01DX005 (ip), vehicle: saline with Tween-80 101 % of control and 108 % of control | dose: 50.0 mg/kg/injection, schedule: Q01DX005 (ip), vehicle: suspension in saline 102 % of control | dose: 90.0 mg/kg/injection, schedule: Q01DX005 (ip), vehicle: saline with Tween-80 95 % of control and 116 % of control | dose: 100.0 mg/kg/injection, schedule: Q01DX005 (ip), vehicle: suspension in saline 103 % of control | dose: 180.0 mg/kg/injection, schedule: Q01DX005 (ip), vehicle: saline with Tween-80 104 % of control | dose: 200.0 mg/kg/injection, schedule: Q01DX005 (ip), vehicle: suspension in saline 99 % of control

COc1cccc2c1C(=O)c1c(O)c3c(c(O)c1C2=O)C[C@@](O)(/C(C)=N/NC(=O)c1ccccc1)C[C@@H]3OC1CC(N)C(O)C(C)O1 (some centres not stated)
inactive: dose: 1.0 mg/kg/injection, schedule: Q01DX009 (ip), vehicle: saline 108 % of control | [1] 100 % of control | dose: 2.0 mg/kg/injection, schedule: Q01DX009 (ip), vehicle: saline 99 % of control | [2] 103 % of control | dose: 4.0 mg/kg/injection, schedule: Q01DX009 (ip), vehicle: saline 113 % of control

O=c1ccn(C2OC(CO)C(O)C2O)c(=O)[nH]1 (configuration not stated)
inactive: dose: 64.0 mg/kg/injection, schedule: Q01DX005 (ip), vehicle: saline 93 % of control | dose: 128.0 mg/kg/injection, schedule: Q01DX005 (ip), vehicle: saline 89 % of control and 100 % of control | dose: 256.0 mg/kg/injection, schedule: Q01DX005 (ip), vehicle: saline 102 % of control and 109 % of control | dose: 512.0 mg/kg/injection, schedule: Q01DX005 (ip), vehicle: saline 96 % of control and 108 % of control

O=c1cc[nH]c(=O)[nH]1
inactive: dose: 32.0 mg/kg/injection, schedule: Q01DX005 (ip), vehicle: Klucel (hydroxypropylcellulose) (HPC) 98 % of control | dose: 64.0 mg/kg/injection, schedule: Q01DX005 (ip), vehicle: Klucel (hydroxypropylcellulose) (HPC) 98 % of control and 105 % of control | [3] 95 % of control | dose: 128.0 mg/kg/injection, schedule: Q01DX005 (ip), vehicle: Klucel (hydroxypropylcellulose) (HPC) 100 % of control and 108 % of control | [4] 98 % of control | dose: 256.0 mg/kg/injection, schedule: Q01DX005 (ip), vehicle: Klucel (hydroxypropylcellulose) (HPC) 98 % of control and 110 % of control | [5] 94 % of control | dose: 512.0 mg/kg/injection, schedule: Q01DX005 (ip), vehicle: Klucel (hydroxypropylcellulose) (HPC) 96 % of control and 104 % of control | [6] 104 % of control | dose: 1024.0 mg/kg/injection, schedule: Q01DX005 (ip), vehicle: Klucel (hydroxypropylcellulose) (HPC) 109 % of control | dose: 1024.0 mg/kg/injection, schedule: Q01DX005 (ip), vehicle: saline with Tween-80 100 % of control

O=[N+]([O-])O.[Ga]
inactive: dose: 32.0 mg/kg/injection, schedule: Q01DX005 (ip), vehicle: saline 110 % of control

N[C@H](C(=O)O)[C@@H]1CC(Cl)=NO1
inactive: dose: 1.0 mg/kg/injection, schedule: Q01DX005 (ip), vehicle: saline with Tween-80 93 % of control | [1] 94 % of control | [2] 113 % of control | [7] 108 % of control | dose: 8.0 mg/kg/injection, schedule: Q12HX002 (ip), vehicle: saline 118 % of control | dose: 16.0 mg/kg/injection, schedule: Q01DX001 (ip), vehicle: saline 100 % of control and 114 % of control | dose: 16.0 mg/kg/injection, schedule: Q12HX002 (ip), vehicle: saline 97 % of control | dose: 32.0 mg/kg/injection, schedule: Q01DX001 (ip), vehicle: saline 101 % of control | dose: 32.0 mg/kg/injection, schedule: Q12HX002 (ip), vehicle: saline 113 % of control | dose: 64.0 mg/kg/injection, schedule: Q01DX001 (ip), vehicle: saline 103 % of control and 113 % of control | dose: 64.0 mg/kg/injection, schedule: Q01DX001 (oral), vehicle: saline 93 % of control and 105 % of control | dose: 64.0 mg/kg/injection, schedule: Q12HX002 (ip), vehicle: saline 116 % of control | dose: 128.0 mg/kg/injection, schedule: Q01DX001 (ip), vehicle: saline 106 % of control and 108 % of control | dose: 128.0 mg/kg/injection, schedule: Q01DX001 (oral), vehicle: saline 98 % of control and 106 % of control | dose: 128.0 mg/kg/injection, schedule: Q12HX002 (ip), vehicle: saline 108 % of control | dose: 256.0 mg/kg/injection, schedule: Q01DX001 (ip), vehicle: saline 106 % of control and 108 % of control | dose: 256.0 mg/kg/injection, schedule: Q01DX001 (oral), vehicle: saline 102 % of control and 117 % of control | dose: 512.0 mg/kg/injection, schedule: Q01DX001 (oral), vehicle: saline 106 % of control and 121 % of control | dose: 1024.0 mg/kg/injection, schedule: Q01DX001 (oral), vehicle: saline 110 % of control and 115 % of control

CCCCCCCCCCCCCC(=O)OC12CC(C)C3(O)C(C=C(CO)C(O)C4(O)C(=O)C(C)=CC43)C1C2(C)C (configuration not stated)
inactive: dose: 0.13 mg/kg/injection, schedule: Q01DX005 (ip), vehicle: acetone 100 % of control | dose: 0.25 mg/kg/injection, schedule: Q01DX005 (ip), vehicle: acetone 97 % of control | dose: 0.5 mg/kg/injection, schedule: Q01DX005 (ip), vehicle: acetone 86 % of control

COc1ccc2c(c1OC(C)=O)-c1cc(O)cc3c1C(C2)N(C(=O)CN(CCCl)CCCl)CC3 (configuration not stated)
inactive: dose: 12.5 mg/kg/injection, schedule: Q04DX003 (ip), vehicle: saline 94 % of control | dose: 25.0 mg/kg/injection, schedule: Q04DX003 (ip), vehicle: saline 99 % of control | dose: 50.0 mg/kg/injection, schedule: Q04DX003 (ip), vehicle: saline 86 % of control

N=c1ccn2c(n1)OC1C(O)C(CO)OC12 (configuration not stated)
inactive: dose: 100.0 mg/kg/injection, schedule: Q01DX001 (ip), vehicle: saline 118 % of control | dose: 100.0 mg/kg/injection, schedule: Q01DX005 (ip), vehicle: saline 106 % of control and 112 % of control | dose: 200.0 mg/kg/injection, schedule: Q01DX001 (ip), vehicle: saline 123 % of control | dose: 200.0 mg/kg/injection, schedule: Q01DX005 (ip), vehicle: saline 120 % of control and 122 % of control | dose: 400.0 mg/kg/injection, schedule: Q01DX001 (ip), vehicle: saline 111 % of control | dose: 400.0 mg/kg/injection, schedule: Q01DX005 (ip), vehicle: saline 122 % of control | dose: 800.0 mg/kg/injection, schedule: Q01DX001 (ip), vehicle: saline 116 % of control

C[C@]1(O)CC[C@H]2[C@@H]3CCC4=CC(=O)CC[C@]4(C)[C@@]3(F)[C@@H](O)C[C@@]21C
inactive: [7] 94 % of control and 99 % of control | dose: 16.0 mg/kg/injection, schedule: Q01DX005 (ip), vehicle: saline with Tween-80 93 % of control and 104 % of control | dose: 32.0 mg/kg/injection, schedule: Q01DX005 (ip), vehicle: saline with Tween-80 102 % of control and 105 % of control | [3] 93 % of control and 96 % of control | [4] 93 % of control and 96 % of control | [5] 94 % of control and 100 % of control | [6] 93 % of control and 103 % of control
